Patent US9815851B2, “Pyrrolo carboxamides as modulators of orphan nuclear receptor RAR-related orphan receptor-gamma (RORγ, NR1F3) activity and for the treatment of chronic inflammatory and autoimmune diseases” (PHENEX PHARMACEUTICALS AG, priority 2011, dated 2017)
Like-named read-outs stand apart in the source and are kept apart here.

Columns and labels:
[1] = molecular target: T1, RORγ ligand binding domain (LBD) (Homo sapiens, UniProt P51449); assay: TR-FRET Activity Assay (ligand sensing, RORγ-LBD / coactivator peptide interaction, LANCE); assay type: biochemical
T1 construct: made in house; host or cells: E. coli BL-21 (BL3), vector pDEST15
T1 sequence (P51449 269-508 limits assumed): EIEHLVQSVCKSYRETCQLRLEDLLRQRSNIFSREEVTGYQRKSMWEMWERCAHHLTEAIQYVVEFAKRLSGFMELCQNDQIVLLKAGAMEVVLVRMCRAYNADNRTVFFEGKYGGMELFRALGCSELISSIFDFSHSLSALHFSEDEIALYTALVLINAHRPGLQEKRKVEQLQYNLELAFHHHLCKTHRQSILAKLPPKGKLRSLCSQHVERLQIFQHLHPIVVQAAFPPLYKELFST

RORγ = molecular target: T2, RORγ (UniProt P51449); assay: RORγ Gal4 Reporter Gene Assay in 293T cells (firefly and renilla luciferase); assay type: cell-based, human
T2 sequence (P51449 1-518): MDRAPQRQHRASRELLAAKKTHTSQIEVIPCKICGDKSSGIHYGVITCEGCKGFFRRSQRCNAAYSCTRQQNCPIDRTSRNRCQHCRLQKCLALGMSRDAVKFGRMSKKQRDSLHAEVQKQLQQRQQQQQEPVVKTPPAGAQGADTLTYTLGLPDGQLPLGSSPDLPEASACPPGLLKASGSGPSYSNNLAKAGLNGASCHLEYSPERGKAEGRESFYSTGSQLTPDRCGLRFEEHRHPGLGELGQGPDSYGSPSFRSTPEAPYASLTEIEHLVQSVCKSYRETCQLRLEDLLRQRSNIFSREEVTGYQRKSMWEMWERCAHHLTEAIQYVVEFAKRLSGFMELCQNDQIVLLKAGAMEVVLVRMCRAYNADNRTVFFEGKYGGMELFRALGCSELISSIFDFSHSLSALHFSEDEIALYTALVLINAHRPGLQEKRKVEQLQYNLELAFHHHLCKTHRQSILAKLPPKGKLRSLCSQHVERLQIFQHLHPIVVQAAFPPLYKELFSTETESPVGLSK

[2] = first value of the cell FRET/FF/REN, TR-FRET activity assay, read-out: pIC50 (FRET) (converted)
[3] = second value of the cell, Gal4 reporter gene assay in 293T cells, firefly luciferase
[4] = third value of the cell, Gal4 reporter gene assay in 293T cells, renilla normalised luciferase

Structure (SMILES)	IC50 [1, 2]	pIC50 (FF) (RORγ; [3])	pIC50 (REN) (RORγ; [4])	IC50 [1]	pIC50 (FF) (RORγ)	pIC50 (REN) (RORγ)
Cc1c(C(=O)NC2CCOCC2)cc(-c2ccc(S(=O)(=O)NC(C)(C)C)c3c(F)cccc23)n1CC1CCCCC1 [17/363]	1000 nM	7.4	7.5			
Cc1c(C(=O)N[C@H]2C[C@H](C(=O)O)C2)cc(-c2ccc(S(=O)(=O)NC(C)(C)C)c3c(F)cccc23)n1CC1CCCCC1 [17/364]	1000 nM	6.9	7.0			
Cc1c(C(=O)NCC(C)(C)O)cc(-c2ccc(S(=O)(=O)NC(C)(C)C)c3c(F)cccc23)n1CC1CCCCC1 [17/365]	1260 nM	7.0	7.0			
Cc1c(C(=O)NCC(C)(C)O)cc(-c2cc(C(C)(C)C)nc3ccccc23)n1CC1CCCCC1 [17/366]	5010 nM	6.6	6.3			
Cc1c(C(=O)NC2CCOCC2)cc(-c2ccc(S(=O)(=O)NC(C)(C)C)c3cnccc23)n1CC1CCCCC1 [17/369]				1260 nM	5.9/7.5/7.5	5.9/7.5/7.5
Cc1c(C(=O)NCC(C)(C)O)cc(-c2ccc(S(=O)(=O)NC(C)(C)C)c3ccccc23)n1CC1CCCC(F)C1 (stereo not drawn) [17/370]	2000 nM	7.2	7.3			
Cc1c(C(=O)N[C@H]2C[C@H](C(=O)O)C2)cc(-c2cc(C(=O)NC(C)(C)C)nc(C3(C)CC3)n2)n1CC1CCCCC1 [17/372]	3160 nM	6.3	6.2			
CC(=NO)c1cc(-c2cc(C(=O)NC3CCOCC3)c(C)n2CC2CCCCC2)cc(C(C)(C)C)c1 [18/1]	794 nM	7.5	7.7			
Cc1c(C(=O)NC2CCOCC2)cc(-c2cc3c(c(C(C)(C)C)c2)OCCC3=NO)n1CC1CCCCC1 [18/3]	1580 nM	6.1	6.5			
Cc1c(C(=O)NC2CCOCC2)cc(-c2cc3c(c(C(C)(C)C)c2)OCCC3F)n1CC1CCCCC1 (stereo not drawn) [18/4]	794 nM	6.3	6.5			
Cc1c(C(=O)NC2CCOCC2)cc(-c2ccc(S(=O)(=O)NC(C)(C)CF)c(C(F)(F)F)c2)n1CC1CCCCC1 [18/5]				631 nM	6.2/7.5/7.5	6.2/7.5/7.5
Cc1c(C(=O)NC2CCOCC2)cc(-c2cc(Cl)c(S(N)(=O)=O)c(C(F)(F)F)c2)n1CC1CCCCC1 [19/1]	501 nM	6.8	6.8			
CC(C)(C)c1cc(-c2cc(C(=O)N[C@H]3C[C@H](C(=O)O)C3)c(F)n2CC2CCCCC2)cc(C2(C)CC2)c1 [20/3]	631 nM	7.3	7.4			
COC(=O)C(C)(C)CCNC(=O)c1cc(-c2cc(C(C)(C)C)cc(C3(C)CC3)c2)n(CC2CCCCC2)c1F [20/4]	200 nM	6.9	6.9			
CC(C)(CCNC(=O)c1cc(-c2cc(C(C)(C)C)cc(C3(C)CC3)c2)n(CC2CCCCC2)c1F)C(=O)O [20/5]	794 nM	7.0	7.0			
CC(C)(C)NS(=O)(=O)c1ccc(-c2cc(C(=O)N[C@H]3C[C@H](C(=O)O)C3)c(F)n2CC2CCCCC2)cc1C(F)(F)F [20/7]	398 nM	6.2	6.2			
CC(C)(C)NS(=O)(=O)c1ccc(-c2cc(C(=O)N[C@H]3C[C@H](C(=O)O)C3)c(F)n2CC2CCCCC2)c2ccccc12 [20/8]	1000 nM	7.0	7.0			
CC(C)(C)NS(=O)(=O)c1ccc(-c2cc(C(=O)NC3CCOCC3)c(Cl)n2CC2CCCCC2)c2ccccc12 [22/1]				158 nM	6.8/8.4/8.4	6.8/8.4/8.4
Cc1c(C(=O)NC2CCOCC2)cc(C2=NN(S(=O)(=O)c3ccccc3)C3(CCCCC3)C2)n1CC1CCCCC1 [24/1]	12600 nM	6.3	6.4			
Cc1n[nH]cc1-c1ccc(-c2cc(C(=O)NC3CCOCC3)c(C)n2CC2CCCCC2)cc1C(C)(C)C [26/1]				251 nM	6.6/7.4/7.5	6.6/7.4/7.5
Cc1c(C(=O)NC2CCOCC2)cc(-c2ccc(-c3cnn(C(C)(C)C)c3)c(C(C)(C)C)c2)n1CC1CCCCC1 [26/2]	200 nM	7.2	7.2			

More lines, main results first:

IC50 [1, 2]	pIC50 (FF) (RORγ; [3])	pIC50 (REN) (RORγ; [4])	Structure (SMILES)	IC50 [1]	pIC50 (FF) (RORγ)	pIC50 (REN) (RORγ)
2000 nM	6.4	6.4	Cc1c(C(=O)NCCC(C)(C)C(=O)O)cc(-c2ccc(S(=O)(=O)NC3(C#N)CC3)c(C(F)(F)F)c2)n1CC1CCCCC1 [17/361]			
1260 nM	5.9	5.8	Cc1c(C(=O)N[C@H]2C[C@H](C(=O)O)C2)cc(-c2ccc(S(=O)(=O)NC3(C#N)CC3)c(C(F)(F)F)c2)n1CC1CCCCC1 [17/362]			
5010 nM	6.4	6.1	Cc1c(C(=O)NCC(C)(C)O)cc(-c2cc(C(C)(C)C)cc(C(=O)NC(C)(C)C)c2Cl)n1CC1CCCCC1 [17/367]			
7940 nM	6.4	6.2	Cc1c(C(=O)N[C@H]2C[C@H](C(=O)O)C2)cc(-c2cc(C(C)(C)C)cc(C(=O)NC(C)(C)C)c2Cl)n1CC1CCCCC1 [17/368]			
631 nM	8.0	8.0	Cc1c(S(=O)(=O)NC(C)(C)C)ccc(-c2cc(C(=O)NCC(C)(C)C(N)=O)c(C)n2CC2CCCCC2)c1Cl [17/371]			
5010 nM	< 4.7	< 4.7	Cc1c(C(=O)NCC(C)(C)O)cc(-c2cc(C(=O)NC(C)(C)C)nc(C3(C)CC3)n2)n1CC1CCCCC1 [17/373]			
1580 nM	7.3	7.3	Cc1c(C(=O)NCC(C)(C)O)cc(-c2ccc(S(=O)(=O)NC(C)(C)C)c3ccccc23)n1CC1CCC(F)CC1 (stereo not drawn) [17/374]			
251 nM	8.0	8.2	Cc1c(C(=O)NC2CCOCC2)cc(-c2ccc(S(=O)(=O)NC(C)(C)CCF)c(C(F)(F)F)c2)n1CC1CCCCC1 [18/2]			
251 nM	7.1	7.3	CC(C)(C)NS(=O)(=O)c1ccc(-c2cc(C(=O)NC3CCOCC3)c(F)n2CC2CCCCC2)cc1C(F)(F)F [20/1]			
316 nM	7.0	7.2	COC(=O)[C@H]1C[C@H](NC(=O)c2cc(-c3cc(C(C)(C)C)cc(C4(C)CC4)c3)n(CC3CCCCC3)c2F)C1 [20/2]			
501 nM	6.9	6.9	CC(C)(C)NS(=O)(=O)c1ccc(-c2cc(C(=O)NCCC(C)(C)C(=O)O)c(F)n2CC2CCCCC2)cc1C(F)(F)F [20/6]			
1260 nM	7.8	7.6	CC(C)(C)NS(=O)(=O)c1ccc(-c2cc(C(=O)NCCC(C)(C)C(=O)O)c(F)n2CC2CCCCC2)c2ccccc12 [20/9]			
398 nM	8.1	8.0	CC(C)(C)NS(=O)(=O)c1ccc(-c2cc(C(=O)N[C@H]3C[C@H](C(=O)O)C3)c(Cl)n2CC2CCCCC2)c2ccccc12 [22/2]			
6310 nM	< 4.7	< 4.7	Cc1c(C(=O)NC2COC2)cc(C2=NN(C(=O)C3CCCCC3)C3(CCCCC3)C2)n1CC1CCCCC1 [24/2]			
